Data taken from US20090131443A1, “METHOD FOR PREVENTION AND/OR TREATMENT OF RHEUMATOID ARTHRITIS” (Kowa Co., Ltd., priority 2005, published 2009).

Test system: rats of a collagen-induced arthritis model
Experiment: Both-hindlimb edema suppression in rats of a collagen-induced arthritis model
Format: in vivo, Lewis female rats (LEW/Crj)
Conditions: solo administration; for Edema Index: mean ± standard error, control group 6.85 ± 0.33; for Percent edema suppression: vs control group
Experimental: The effect on suppressing both-hindlimb edema of 2-benzyl-5-(4-chlorophenyl)-6-[4-(methylthio)phenyl]-2H-pyridazin-3-one (synthesized through the aforementioned method) and that of tacrolimus (Prograf (injection: 5 mg), product of Fujisawa Pharmaceutical Co., Ltd.) were determined both in the cases of combined administration and solo administration through the following procedure (by use of rats of a collagen-induced arthritis model) (FDA, CBER, CDER, CDRH: Guidance for industry—Clinical development programs for drugs, devices, and biological products for the treatment of rheumatoid arthritis (RA)—. (1999)). Lewis female rats (LEW/Crj) (obtained from Charles River Laboratories Japan, Inc.) were employed as test animals.
For each 8-week-old LEW/Crj rat, the volume of a portion from the ankle to the toe tip of each hindlimb was measured by means of a plethysmometer for small animals (TK-101CMP, product of Unicom), and a total of the two volumes was employed as a volume of the hindlimbs (hereinafter referred to as both-hindlimb volume) at the start of the test (hereinafter referred to as Pre value). By use of the Pre value as an index, the rats were divided into groups which are alike from group to group, through one-parameter-based block randomization.
The collagen emulsion for sensitization employed for inducing arthritis in rats was prepared by homogenizing a 0.3% Type II collagen liquid (product of Collagen Research Center), adjuvant peptide (product of Peptide Institute, Inc.), and adjuvant incomplete Freund (product of DIFCO) by means of a Handy Micro Homogenizer (product of Microtec Nition) under cooling with ice. The thus-prepared emulsion was intracutaneously injected to 10 sites in the dorsum of each rat at 0.1 mL/site, to thereby initially sensitize the rat. Seven days after initial sensitization, the same emulsion (0.12 mL) was intracutaneously injected to the tail head of the rat for booster sensitization.
Administration of one drug or two drugs was carried out the day after initial sensitization to day 26. To the 2-benzyl-5-(4-chlorophenyl)-6-[4-(methylthio)phenyl]-2H-pyridazin-3-one solo administration group, the drug was orally administered twice; in the morning (9:00 to 11:00) and in the evening (15:30 to 17:30) at a dose of 3 mg/kg. To the tacrolimus sole administration group, the drug was orally administered once in the afternoon (11:30 to 13:30) at a dose of 0.1, 0.3, or 1 mg/kg. To the combined administration group (2-benzyl-5-(4-chlorophenyl)-6-[4-(methylthio)phenyl]-2H-pyridazin-3-one and tacrolimus), 2-benzyl-5-(4-chlorophenyl)-6-[4-(methylthio)phenyl]-2H-pyridazin-3-one was orally administered in the morning (9:00 to 11:00) and in the evening (15:30 to 17:30) at a dose of 3 mg/kg, and tacrolimus was orally administered in the afternoon (11:30 to 13:30) at a dose of 0.3 mg/kg.
14 days, 18 days, 22 days, and 26 days after initial sensitization, both-hindlimb volume was measured. Volume of both-hindlimb edema was calculated by subtracting the Pre value from the thus-measured value.
Table 1 and FIG. 1 show Edema Index of the groups of rats, the groups being the 2-benzyl-5-(4-chlorophenyl)-6-[4-(methylthio)phenyl]-2H-pyridazin-3-one solo administration group, the tacrolimus solo administration group, and the combined administration group. The Edema Index of each group is an average of the indices obtained from 6 to 12 rats ±a standard error. Percent edema suppression represents a value obtained from the relationship:
100×[(average both-hindlimb edema volume of the control group)−(average both-hindlimb edema volume of each administration group)]/(average both-hindlimb edema volume of the control group). Relative factor represents a ratio of (average both-hindlimb edema volume of each administration group)/(average both-hindlimb edema volume of the control group).

Row | SMILES | Edema Index suppression effect (in words) (3 mg/kg) | Edema Index (3 mg/kg orally twice daily, day 1 to day 26 after initial sensitization, sum of both-hindlimb edema volumes at days 14, 18, 22, 26) | Relative factor (3 mg/kg orally twice daily, ratio of group average edema volume to control group) | Percent edema suppression (3 mg/kg orally twice daily) | Edema Index (0.1 mg/kg orally once daily, day 1 to day 26) | Relative factor (0.1 mg/kg orally once daily, ratio to control group) | Percent edema suppression (0.1 mg/kg orally once daily) | Edema Index (0.3 mg/kg orally once daily, day 1 to day 26) | Relative factor (0.3 mg/kg orally once daily, ratio to control group) | Percent edema suppression (0.3 mg/kg orally once daily) | Edema Index (1 mg/kg orally once daily, day 1 to day 26) | Relative factor (1 mg/kg orally once daily, ratio to control group) | Percent edema suppression (1 mg/kg orally once daily) | Edema Index suppression effect (in words) (up to 1 mg/kg)
1 | CSc1ccc(-c2nn(Cc3ccccc3)c(=O)cc2-c2ccc(Cl)cc2)cc1 [2-benzyl-5-(4-chlorophenyl)-6-[4-(methylthio)phenyl]-2H-pyridazin-3-one] | do not result in potent Edema Index suppression effects | 5.58 ± 0.63 mL | 0.81 | 19% | – | – | – | – | – | – | – | – | – | –
2 | C=CC[C@@H]1/C=C(\C)C[C@H](C)C[C@H](OC)[C@H]2O[C@@](O)(C(=O)C(=O)N3CCCC[C@H]3C(=O)O[C@H](/C(C)=C/[C@@H]3CC[C@@H](O)[C@H](OC)C3)[C@H](C)[C@@H](O)CC1=O)[C@H](C)C[C@@H]2OC [Tacrolimus, tacrolimus] | – | – | – | – | 6.75 ± 0.31 mL | 0.99 | 1% | 6.09 ± 0.30 mL | 0.89 | 11% | 5.04 ± 0.20 mL | 0.74 | 26% | do not result in potent Edema Index suppression effects
